Measured values: US8269000B2, “Substituted pyrimidine and triazine compounds” (Gruenenthal GmbH, priority 2008, dated 2012)

Target: T1, rat B1R (Rattus norvegicus, UniProt P97583)
T1 construct: expressed in transfected cells; host or cells: CHO K1 cells
T1 sequence (P97583 1-337): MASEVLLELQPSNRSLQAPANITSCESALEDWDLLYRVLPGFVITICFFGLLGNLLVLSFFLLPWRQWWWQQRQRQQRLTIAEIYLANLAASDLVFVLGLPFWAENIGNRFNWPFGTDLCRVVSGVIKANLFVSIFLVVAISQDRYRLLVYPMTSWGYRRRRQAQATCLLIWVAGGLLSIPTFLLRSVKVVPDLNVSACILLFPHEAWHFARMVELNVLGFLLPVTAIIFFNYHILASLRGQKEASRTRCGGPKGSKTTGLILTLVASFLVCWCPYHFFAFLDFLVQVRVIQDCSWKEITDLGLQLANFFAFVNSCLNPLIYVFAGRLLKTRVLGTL
Test: FLIPR Ca2+ functional study on bradykinin receptor 1 (rB1R CHO K1 cells)
Type: cell-based
Conditions: % inhibition rat B1R at 10 μM
Protocol: The agonistic or antagonistic activity of substances can be quantified on the bradykinin receptor 1 (B1R) of the species human and rat using ectopically expressing cell lines (CHO K1 cells) and with the aid of a Ca^2+-sensitive dye (Fluo-4) using a fluorescent imaging plate reader (FLIPR). The indication in % activation is based on the Ca^2+ signal after addition of Lys-Des-Arg^9-bradykinin (0.5 nM) or Des-Arg^9-bradykinin (100 nM). Antagonists lead to suppression of the Ca^2+ influx after the addition of the agonist. % Inhibition compared with the maximum achievable inhibition is indicated.
The agonistic or antagonistic activity of substances can be determined on the bradykinin receptor 1 (B1R) of the species human and rat using the following assay. According to this assay, the Ca^2+ influx through the channel is quantified with the aid of a Ca^2+-sensitive dye (Fluo-4 type, Molecular Probes Europe BV, Leiden, Netherlands) using a Fluorescent Imaging Plate Reader (FLIPR, Molecular Devices, Sunnyvale, USA).
Chinese hamster ovary cells (CHO K1 cells) which have been stably transfected with the human B1R gene (hB1R cells) or with the B1R gene of the rat (rB1R cells) are used. For functional studies, the cells are plated out on black 96-well plates having a clear base (BD Biosciences, Heidelberg, Germany or Greiner, Frickenhausen, Germany) in a density of 20,000-35,000 cells/well. The cells are left overnight at 37° C. and with 5% CO2 in culture medium (hB1R cells: Nutrient Mixture Ham's F12, Gibco Invitrogen GmbH, Karlsruhe, Germany or DMEM, Sigma-Aldrich, Taufkirchen, Germany; rB1R cells: D-MEM/F12, Gibco Invitrogen GmbH, Karlsruhe, Germany), with 10 vol.% FBS (fetal bovine serum, Gibco Invitrogen GmbH, Karlsruhe, Germany or PAN Biotech GmbH, Aidenbach, Germany). On the following day, the cells are loaded for 60 minutes at 37° C. with 2.13 μM Fluo-4 (Molecular Probes Europe BV, Leiden, Netherlands) in HBSS buffer (Hank's buffered saline solution, Gibco Invitrogen GmbH, Karlsruhe, Germany) […] (Sigma-Aldrich, Taufkirchen, Germany) and 10 mM HEPES (Sigma-Aldrich, Taufkirchen, Germany). The plates are then washed twice with HBSS buffer, and HBSS buffer additionally containing 0.1% BSA (bovine serum albumin; Sigma-Aldrich, Taufkirchen, Germany), 5.6 mM glucose and 0.05% gelatin (Merck KGaA, Darmstadt, Germany) is added to the plates. After incubation for a further 20 minutes at room temperature, the plates are inserted into the FLIPR for Ca^2+ measurement. Alternatively, washing is carried out with buffer A (15 mM HEPES, 80 mM NaCl, 5 mM KCl, 1.2 mM CaCl2, 0.7 mM MgSO4, 2 g/l glucose, 2.5 mM probenecid) followed by loading with buffer A with added 2.5 μM Fluo-4 and 0.025% Pluronic F127 (Sigma-Aldrich, Taufkirchen, Germany). The cells are then washed twice with buffer A and incubated for 30 minutes at room temperature with buffer A additionally containing 0.05% BSA and 0.05% gelatin and are then inserted into the FLIPR for Ca^2+ measurement. The Ca^2+-dependent fluorescence is measured before and after the addition of substances (λex=488 nm, λem=540 nm). Quantification is carried out by measuring the highest fluorescence intensity (FC, fluorescence counts) over time.
The FLIPR protocol consists of two substance additions. Test substances (10 μM) are first pipetted onto the cells and the Ca^2+ influx is compared with the control (hB1R: Lys-Des-Arg^9-bradykinin>=50 nM; rB1R: Des-Arg^9-bradykinin 10 μM). This gives the activation in %, based on the Ca^2+ signal after addition of Lys-Des-Arg^9-bradykinin (>=50 nM) or Des-Arg^9-bradykinin (10 μM). After 10-20 minutes' incubation, Lys-Des-Arg^9-bradykinin (hB1R) or Des-Arg^9-bradykinin (rB1R) is applied in the concentration of the EC80, and the influx of Ca^2+ is likewise determined. Antagonists lead to suppression of the Ca^2+ influx. The % inhibition compared with the maximum achievable inhibition is calculated. […]

Question: With COc1cc(C)c(S(=O)(=O)N(C)CCOc2nccc(N3CCC(CCN4CCCCC4)CC3)n2)c(C)c1 [G_CC-031] as the compound, how does the “% inh. (rat B1R) 10 μM” value read?
Answer: 104%

Question: How did the “% inh. (rat B1R) 10 μM” value turn out when COc1cc(C)c(S(=O)(=O)N(C)C(COc2nccc(N3CCC(c4nc(-c5ccncc5)no4)CC3)n2)c2ccccc2)c(C)c1 (stereo not shown) [G_CC-134] was run?
Answer: 88%

Question: Which “% inh. (rat B1R) 10 μM” value does the source give for “4-[[1-[(4-methoxy-2,6-dimethyl-phenyl)sulfonyl]-piperidin-2-yl]-methoxy]-2-(4-pyrazin-2-yloxy-piperidin-1-yl)-pyrimidine [H_CC-080]” here?
Answer: 59%

Question: How did the “% inh. (rat B1R) 10 μM” value turn out when COc1cc(C)c(S(=O)(=O)N2CCC[C@H]2COc2ccnc(N3CCC(CCN4CCCCC4)CC3)n2)c(C)c1 [H_CC-026, 4-[[(2S)-1-(4-methoxy-2,6-dimethylphenyl)sulfonyl-2-pyrrlidinyl]methoxy]-2-[4-[2-(1-piperidyl)ethyl]-1-piperidinyl]pyrimidine] was run?
Answer: 75%

Same assay, conditions: CHO-K1, % inhibition rat B1R at 10 μM, read-out: % inh. (rat B1R) 10 μM

Question: How did the inhibition at 10 µM turn out when COc1cc(C)c(S(=O)(=O)N2CCCCC2COc2nccc(N3CCC(C)(N4CCOCC4)CC3)n2)c(C)c1 (stereo not shown) [G_CC-131, 4-[1-[2-[[1-[(4-methoxy-2,6-dimethyl-phenyl)sulfonyl]-piperidin-2-yl]-methoxy]-pyrimidin-4-yl]-4-methyl-piperidin-4-yl]-morpholine] was run?
Answer: 88%

Question: COc1cc(C)c(S(=O)(=O)N(C)CCOc2ccnc(N3CC4CC3CN4Cc3ccncc3)n2)c(C)c1 (stereo not shown) [H_CC-034, 4-methoxy-N,2,6-trimethyl-N-[2-[[2-[2-(4-pyridylmethyl)-2,5-diazabicyclo[2.2.1]heptan-5-yl]-4-pyrimidinyl]oxy]ethyl]benzenesulfonamide] was tested. Which inhibition at 10 µM did it give?
Answer: 74%

Question: For COc1cc(C)c(S(=O)(=O)N2CCCCC2COc2nccc(N3CCC(c4ccccc4)(N4CCCC4)CC3)n2)c(C)c1 (stereo not shown) [G_CC-121, 2-[[1-[(4-methoxy-2,6-dimethyl-phenyl)sulfonyl]-piperidin-2-yl]-methoxy]-4-(4-phenyl-4-pyrrolidin-1-yl-piperidin-1-yl)-pyrimidine], which inhibition at 10 µM is on record?
Answer: 75%

Question: For COc1cc(C)c(S(=O)(=O)N2CCCCC2COc2ccnc(N3[C@@H]4CC[C@H]3CC(Oc3ccncc3)C4)n2)c(C)c1 (stereo partly drawn) [H_CC-050, (1S,5R)-8-[4-[[1-[(4-methoxy-2,6-dimethyl-phenyl)sulfonyl]-piperidin-2-yl]-methoxy]-pyrimidin-2-yl]-3-pyridin-4-yloxy-8-azabicyclo[3.2.1]octane], which inhibition at 10 µM is on record?
Answer: 74%

Question: Which inhibition at 10 µM does the source give for COc1cc(C)c(S(=O)(=O)N(C)CCOc2nccc(N3CCC4(CC3)C(=O)NCC4c3cccc(C(F)(F)F)c3)n2)c(C)c1 (stereo not shown) [G_CC-043, 4-methoxy-N,2,6-trimethyl-N-[2-[[4-[4-oxo-1-[3-(trifluoromethyl)phenyl]-3,8-diazaspiro[4.5]decan-8-yl]-2-pyrimidinyl]oxy]ethyl]benzenesulfonamide] here?
Answer: 70%

Question: For COc1cc(C)c(S(=O)(=O)N2c3ccccc3C[C@H]2COc2ccnc(N(C)CCN3CCC(c4ccccc4)(N4CCCC4)CC3)n2)c(C)c1 [H_CC-072, [4-[[(2S)-1-[(4-methoxy-2,6-dimethyl-phenyl)sulfonyl]-2,3-dihydro-1H-indol-2-yl]-methoxy]-pyrimidin-2-yl]-methyl-[2-(4-phenyl-4-pyrrolidin-1-yl-piperidin-1-yl)-ethyl]-amine], which inhibition at 10 µM is on record?
Answer: 83%

Question: With COc1cc(C)c(S(=O)(=O)N2CCC[C@H]2COc2ccnc(N3CCC(O)(c4cccnc4)CC3)n2)c(C)c1 [H_CC-013, 1-[4-[[(2S)-1-(4-methoxy-2,6-dimethylphenyl)sulfonyl-2-pyrrolidinyl]methoxy]-2-pyrimidinyl]-4-(3-pyridyl)-4-piperidinol] as the compound, how does the inhibition at 10 µM read?
Answer: 79%

Question: For COc1cc(C)c(S(=O)(=O)N2CC(Oc3ccnc(N(C)CCCN4CCC(c5ccccc5)(N(C)C)CC4)n3)C2)c(C)c1 [H_CC-074, 3-(4-dimethylamino-4-phenyl-piperidin-1-yl)-propyl-[4-[1-[(4-methoxy-2,6-dimethyl-phenyl)sulfonyl]-azetidin-3-yl]oxy-pyrimidin-2-yl]-methyl-amine], which inhibition at 10 µM is on record?
Answer: 59%

Question: For COc1cc(C)c(S(=O)(=O)N(C)CCOc2ccnc(N(C)CCN3CCC(c4ccccc4)(N4CCCC4)CC3)n2)c(C)c1 [H_CC-059, 4-methoxy-N,2,6-trimethyl-N-[2-[2-[methyl-[2-(4-phenyl-4-pyrrolidin-1-yl-piperidin-1-yl)-ethyl]-amino]-pyrimidin-4-yl]oxy-ethyl]-benzenesulfonic acid amide], which inhibition at 10 µM is on record?
Answer: 91%

Question: How did the inhibition at 10 µM turn out when COc1cc(C)c(S(=O)(=O)N(C)C(COc2nccc(N3CCC(O)(c4ccncc4)CC3)n2)c2ccccc2)c(C)c1 (stereo not shown) [G_CC-112, N-[2-[4-(4-hydroxy-4-pyridin-4-yl-piperidin-1-yl)-pyrimidin-2-yl]oxy-1-phenyl-ethyl]-4-methoxy-N,2,6-trimethyl-benzenesulfonic acid amide] was run?
Answer: 88%

Question: How did the inhibition at 10 µM turn out when COc1cc(C)c(S(=O)(=O)N(C)C(COc2ccnc(N3CCN(c4ccncc4)CC3)n2)c2ccccc2)c(C)c1 (stereo not shown) [H_CC-036, 4-methoxy-N,2,6-trimethyl-N-[1-phenyl-2-[[2-[4-(4-pyridyl)-1-piperazinyl]-4-pyrimidinyl]oxy]ethyl]benzenesulfonamide] was run?
Answer: 71%

Question: Which inhibition at 10 µM does the source give for COc1cc(C)c(S(=O)(=O)N2CCCCC2COc2nccc(N3CCC(c4ccccc4)(N(C)C)CC3)n2)c(C)c1 (stereo not shown) [G_CC-113, [1-[2-[[1-[(4-methoxy-2,6-dimethyl-phenyl)sulfonyl]-piperidin-2-yl]-methoxy]-pyrimidin-4-yl]-4-phenyl-piperidin-4-yl]-dimethyl-amine] here?
Answer: 79%

Question: COc1cc(C)c(S(=O)(=O)N2CCCCC2COc2nccc(N3[C@@H]4CC[C@H]3CC(Oc3cccnc3)C4)n2)c(C)c1 (stereo partly drawn) [G_CC-105, (1S,5R)-8-[2-[[1-[(4-methoxy-2,6-dimethyl-phenyl)sulfonyl]-piperidin-2-yl]-methoxy]-pyrimidin-4-yl]-3-pyridin-3-yloxy-8-azabicyclo[3.2.1]octane] was tested. Which inhibition at 10 µM did it give?
Answer: 101%

Question: How did the inhibition at 10 µM turn out when COc1cc(C)c(S(=O)(=O)N2CCC[C@H]2COc2ccnc(N(C)CCCN3CCC(c4ccccc4)(N(C)C)CC3)n2)c(C)c1 [H_CC-046, 3-(4-dimethylamino-4-phenyl-piperidin-1-yl)-propyl-[4-[[(2S)-1-[(4-methoxy-2,6-dimethyl-phenyl)sulfonyl]-pyrrolidin-2-yl]-methoxy]-pyrimidin-2-yl]-methyl-amine] was run?
Answer: 89%

Question: With CCCCC1(N(C)C)CCN(CCN(C)c2nccc(OC3CCCN(S(=O)(=O)c4c(C)cc(OC)cc4C)C3)n2)CC1 (stereo not shown) [H_CC-053, 2-(4-butyl-4-dimethylamino-piperidin-1-yl)-ethyl-[4-[1-[(4-methoxy-2,6-dimethyl-phenyl)sulfonyl]-piperidin-3-yl]oxy-pyrimidin-2-yl]-methyl-amine] as the compound, how does the inhibition at 10 µM read?
Answer: 95%
